pIC50: −log10 of the molar value.
System: ATF4 pathway
Experiment: ATF4 Cell Based Assay (SH-SY5Y-ATF4-NanoLuc reporter, Thapsigargin challenge)
Settings: SH-SY5Y-ATF4-NanoLuc cells, Thapsigargin 14-18 hours; average of a set of two or more experimental runs; read-out: average ATF4 pathway inhibitory activity (IC50)
Source text: The ATF4 reporter assay measures the effect of Thapsigargin induced cellular stress on ATF4 expression. For this reporter assay, a stable cell line was created by transfecting SH-SY5Y cells with a plasmid containing the NanoLuc® luciferase gene fused to the 5′-UTR of ATF4, under the control of the CMV promoter. The ATF4 5′-UTR contains two open reading frames which mediate the cellular stress-dependent translation of the reporter gene. Clones stably expressing the reporter construct were isolated and selected based on the luminescence response to thapsigargin and inhibition of this signal by test compounds. Briefly, SH-SY5Y-ATF4-NanoLuc cells were challenged with Thapsigargin for 14-18 hours to determine the stress effect with or without test compounds.
Cells were propagated in growth media consisting of 90% DMEM F12 (InVitrogen #11320-033), 10% Fetal Bovine Serum (Gibco #10438-026), 5mM Glutamax (Gibco #35050-061), 5 mM Hepes, (Gibco #15630-080), and 0.5 mg/ml Geneticin (Gibco #10131-027). Cells were prepared for the assay by removing all media from cells, washing the plated cells with phosphate buffered saline, and detached by adding a solution comprised of 10% Tryple express solution (InVitrogen12604-021) and 90% enzyme-free cell dissociation buffer HANKS base (Gibco 13150-016). The trypsin was deactivated by adding assay media comprised of 90% phenol-red free DMEM F12 (InVitrogen, 11039), 10% Fetal Bovine Serum (Gibco #10438-026),(5 mM Glutamax (Gibco #35050-061), 5 mM Hepes, (Gibco #15630-080), and 0.5 mg/ml Geneticin (Gibco #10131-027). Suspended cells were spun down at 300 g for 5 min, the supernatant was removed and the cell pellet was suspended in warm media (30-37° C.) comprised as above but without 10% Fetal Bovine Serum to a concentration of 1 e6 cells/ml.
Assay plates were prepared by adding 250 nL of compound stock solution in 100% DMSO to each well, followed by dispensing 20 microliters/well cell suspension to deliver 15-20 k cell/well. Cells were incubated for 1 hour at 37° C. Then, 5 μL of 1.5 μM or 1 μM of Thapsigargin (final concentration: 200-300 nM) was added to each well of cells. Assay plates containing cells were incubated for 14-18 hours at 37° C.
The measurement of luciferase produced by the ATF4 constructs was measured as follows. Aliquots of the Nano-Glo reagent (Nano-Glo® Luciferase Assay Substrate, Promega, N113, Nano-Glo® Luciferase Assay Buffer, Promega, N112 (parts of Nano-Glo® Luciferase Assay System, N1150) were brought to room temperature, the substrate and buffer were mixed according to manufacturer's instructions. The cell plates were equilibrated to room temperature. 25 microliters/well of the mixed Nano-Glo reagent were dispensed into assay wells and pulse spun to settle contents and the plate was sealed with film. The plates were incubated at room temperature for 1 hour before detecting luminescence on an EnVision® plate reader.

| Compound | pIC50 |
| --- | --- |
| O=C(COc1cccc(Cl)c1)NC12CC(N3CCN(c4ccc(Cl)cc4)C3=O)(C1)C2 [Example 1g, 2-(3-chlorophenoxy)-N-(3-(3-(4-chlorophenyl)-2-oxoimidazolidin-1-yl)bicyclo[1.1.1]pentan-1-yl)acetamide] | 7.77 |
| O=C(COc1ccc(Cl)cn1)NC12CC(N3CCN(c4ccc(Cl)cc4)C3=O)(C1)C2 [Example 1k, N-(3-(3-(4-chlorophenyl)-2-oxoimidazolidin-1-yl)bicyclo[1.1.1]pentan-1-yl)-2-((5-chloropyridin-2-yl)oxy)acetamide] | 7.47 |
| O=C(COc1ccc(Cl)c(C(F)(F)F)c1)NC12CC(N3CCN(c4ccc(Cl)cc4)C3=O)(C1)C2 [Example 1l, 2-(4-chloro-3-(trifluoromethyl)phenoxy)-N-(3-(3-(4-chlorophenyl)-2-oxoimidazolidin-1-yl)bicyclo[1.1.1]pentan-1-yl)acetamide] | 8.80 |
| O=C(COc1ccc(Cl)c(F)c1)NC12CC(N3CCN(c4ccc(Cl)cc4)C3=O)(C1)C2 [Example 1m, 2-(4-chloro-3-fluorophenoxy)-N-(3-(3-(4-chlorophenyl)-2-oxoimidazolidin-1-yl)bicyclo[1.1.1]pentan-1-yl)acetamide] | 9.22 |
| O=C(COc1ccc(F)c(Cl)c1)NC12CC(N3CCN(c4ccc(Cl)cc4)C3=O)(C1)C2 [Example 1o, 2-(3-chloro-4-fluorophenoxy)-N-(3-(3-(4-chlorophenyl)-2-oxoimidazolidin-1-yl)bicyclo[1.1.1]pentan-1-yl)acetamide] | 7.99 |
| O=C(COc1ccc(Cl)cc1)NC12CC(N3CCN(c4ccc(C(F)(F)F)cc4)C3=O)(C1)C2 [Example 1r, 2-(4-chlorophenoxy)-N-(3-(2-oxo-3-(4-(trifluoromethyl)phenyl)imidazolidin-1-yl)bicyclo[1.1.1]pentan-1-yl)acetamide] | 8.74 |
| COc1ccc(N2CCN(C34CC(NC(=O)COc5ccc(Cl)cc5)(C3)C4)C2=O)cc1 [Example 1t, 2-(4-chlorophenoxy)-N-(3-(3-(4-methoxyphenyl)-2-oxoimidazolidin-1-yl)bicyclo[1.1.1]pentan-1-yl)acetamide] | 7.29 |
| O=C(COc1ccc(Cl)cc1)NC12CC(N3CCN(c4ccc(Cl)cc4F)C3=O)(C1)C2 [Example 1v, N-(3-(3-(4-chloro-2-fluorophenyl)-2-oxoimidazolidin-1-yl)bicyclo[1.1.1]pentan-1-yl)-2-(4-chlorophenoxy)acetamide] | 7.63 |
| O=C(COc1ccc(Cl)cc1)NC12CC(NC3CN(c4ccc(Cl)cc4)C3)(C1)C2 [Example 3a, 2-(4-chlorophenoxy)-N-(3-((1-(4-chlorophenyl)azetidin-3-yl)amino)bicyclo[1.1.1]pentan-1-yl)acetamide] | 7.87 to 8.44 |
| O=C(COc1ccc(Cl)cc1)NC12CC(N3CC(Oc4ccc(Cl)cc4)C3)(C1)C2 [Example 3b, 2-(4-chlorophenoxy)-N-(3-(3-(4-chlorophenoxy)azetidin-1-yl)bicyclo[1.1.1]pentan-1-yl)acetamide] | 7.87 to 8.44 |
| O=C(COc1ccc(Cl)cc1)NC12CCC(NC(=O)COc3ccc(Cl)nc3)(CC1)CC2 [Example III, 2-(4-chlorophenoxy)-N-(4-(2-((6-chloropyridin-3-yl)oxy)acetamido)bicyclo[2.2.2]octan-1-yl)acetamide] | 8.05 |
| Cc1ccc(OCC(=O)NC23CC(NC(=O)COc4ccc(Cl)cc4)(C2)C3)cn1 [Example IX, 2-(4-chlorophenoxy)-N-(3-(2-((6-methylpyridin-3-yl)oxy)acetamido)bicyclo[1.1.1]pentan-1-yl)acetamide] | 6.52 |
| O=C(COc1ccc(Cl)cc1)NC12CC(NC(=O)Cc3ccc(Cl)cc3)(C1)C2 [Example VI, 2-(4-chlorophenoxy)-N-(3-(2-(4-chlorophenyl)acetamido)bicyclo[1.1.1]pentan-1-yl)acetamide] | 8.39 |
| O=C(COc1ccc(Cl)cc1)NC12CC(NC(=O)c3ccc(Cl)cc3)(C1)C2 [Example XII, 4-chloro-N-(3-(2-(4-chlorophenoxy)acetamido)bicyclo[1.1.1]pentan-1-yl)benzamide] | 7.60 |
| COC(=O)CN(CCOc1ccc(Cl)cc1)C12CC(NC(=O)COc3ccc(Cl)cc3)(C1)C2 [Example XVI, methyl N-(3-(2-(4-chlorophenoxy)acetamido)bicyclo[1.1.1]pentan-1-yl)-N-(2-(4-chlorophenoxy)ethyl)glycinate] | 7.89 |
| O=C(COc1ccc(Cl)cc1)NC12CC(NCCNc3ccc(Cl)cc3)(C1)C2 [Example XXI, 2-(4-chlorophenoxy)-N-(3-((2-((4-chlorophenyl)amino)ethyl)amino)bicyclo[1.1.1]pentan-1-yl)acetamide] | 7.48 |
| O=C(COc1ccc(Cl)cc1)NC12CC(N3CCC(Oc4ccc(Cl)cc4)C3)(C1)C2 (centres unmarked) [XXIV and 6a] | 8.14 |

Results, then the compound that gave them:

| pIC50 | Compound |
| --- | --- |
| 7.70 | O=C(COc1ccc(F)cc1)NC12CC(N3CCC(Oc4ccc(Cl)cc4)C3)(C1)C2 (single isomer, unassigned) [Example 6e, N-(3-(3-(4-chlorophenoxy)pyrrolidin-1-yl)bicyclo[1.1.1]pentan-1-yl)-2-(4-fluorophenoxy)acetamide] |
| 8.24 | O=C(COc1ccc(Cl)c(F)c1)NC12CC(N3CCC(Oc4ccc(Cl)cc4)C3)(C1)C2 (single isomer, unassigned) [Example 6o, 2-(4-chloro-3-fluorophenoxy)-N-(3-(3-(4-chlorophenoxy)pyrrolidin-1-yl)bicyclo[1.1.1]pentan-1-yl)acetamide] |
| 8.00 | O=C(COc1ccc(Cl)cc1)NC12CC(N3CCC(Oc4ccc(Cl)c(F)c4)C3)(C1)C2 (single isomer, unassigned) [Example 6v, N-(3-(3-(4-chloro-3-fluorophenoxy)pyrrolidin-1-yl)bicyclo[1.1.1]pentan-1-yl)-2-(4-chlorophenoxy)acetamide] |
| 8.17 | O=C(COc1ccc(Cl)cc1)NC12CC(N3CCC(Oc4ccc(Cl)cc4)C3)(C1)C2 (stereo in doubt) [Example 6c, (R)-2-(4-chlorophenoxy)-N-(3-(3-(4-chlorophenoxy)pyrrolidin-1-yl)bicyclo[1.1.1]pentan-1-yl)acetamide] |
| 7.91 | O=C(COc1ccc(Cl)cc1)NC12CC(NC(=O)COc3ccc4c(c3)CCCO4)(C1)C2 [Example 4d, 2-(4-chlorophenoxy)-N-(3-(2-(chroman-6-yloxy)acetamido)bicyclo[1.1.1]pentan-1-yl)acetamide] |
| 8.16 | O=C(COc1ccc(C(F)(F)F)cc1)NC12CC(N3CCC(Oc4ccc(Cl)cc4)C3)(C1)C2 (centres unmarked) [Example 6i, N-(3-(3-(4-chlorophenoxy)pyrrolidin-1-yl)bicyclo[1.1.1]pentan-1-yl)-2-(4-(trifluoromethyl)phenoxy)acetamide] |
| 7.61 | O=C(COc1ccc(Cl)c(C(F)(F)F)c1)NC12CC(N3CCC(Oc4ccc(Cl)cc4)C3)(C1)C2 (centres unmarked) [Example 6k, 2-(4-chloro-3-(trifluoromethyl)phenoxy)-N-(3-(3-(4-chlorophenoxy)pyrrolidin-1-yl)bicyclo[1.1.1]pentan-1-yl)acetamide] |
| 8.96 | O=C(COc1ccc(Cl)c(F)c1)NC12CC(N3CCC(Oc4ccc(Cl)cc4)C3)(C1)C2 (centres unmarked) [Example 6q, 2-(4-chloro-3-fluorophenoxy)-N-(3-(3-(4-chlorophenoxy)pyrrolidin-1-yl)bicyclo[1.1.1]pentan-1-yl)acetamide] |
| 8.29 | O=C(COc1ccc(Cl)cc1)NC12CC(N3CCC(Oc4ccc(Cl)cc4)CC3)(C1)C2 [Example 8a, 2-(4-chlorophenoxy)-N-(3-(4-(4-chlorophenoxy)piperidin-1-yl)bicyclo[1.1.1]pentan-1-yl)acetamide] |
